From patent publication US20250320206A1, “STAT6 DEGRADERS” (Gilead Sciences, Inc., priority 2024, published 2025)

Key:
STAT6 = molecular target: T1, STAT6 (Homo sapiens, UniProt P42226); assay: Stat6 Degrader Assay (HiBiT based, HeLa LgBiT clone 4.14); format: cell-based; conditions: HeLa LgBiT clone 4.14 HiBiT-STAT6, 4-24 h incubation; values given for compounds with >80% Emax; geometric mean; read-out: STAT6 degradation DC50
T1 construct: These cells express endogenous STAT6; host or cells: HeLa LgBiT clone 4.14
T1 sequence (P42226 1-847): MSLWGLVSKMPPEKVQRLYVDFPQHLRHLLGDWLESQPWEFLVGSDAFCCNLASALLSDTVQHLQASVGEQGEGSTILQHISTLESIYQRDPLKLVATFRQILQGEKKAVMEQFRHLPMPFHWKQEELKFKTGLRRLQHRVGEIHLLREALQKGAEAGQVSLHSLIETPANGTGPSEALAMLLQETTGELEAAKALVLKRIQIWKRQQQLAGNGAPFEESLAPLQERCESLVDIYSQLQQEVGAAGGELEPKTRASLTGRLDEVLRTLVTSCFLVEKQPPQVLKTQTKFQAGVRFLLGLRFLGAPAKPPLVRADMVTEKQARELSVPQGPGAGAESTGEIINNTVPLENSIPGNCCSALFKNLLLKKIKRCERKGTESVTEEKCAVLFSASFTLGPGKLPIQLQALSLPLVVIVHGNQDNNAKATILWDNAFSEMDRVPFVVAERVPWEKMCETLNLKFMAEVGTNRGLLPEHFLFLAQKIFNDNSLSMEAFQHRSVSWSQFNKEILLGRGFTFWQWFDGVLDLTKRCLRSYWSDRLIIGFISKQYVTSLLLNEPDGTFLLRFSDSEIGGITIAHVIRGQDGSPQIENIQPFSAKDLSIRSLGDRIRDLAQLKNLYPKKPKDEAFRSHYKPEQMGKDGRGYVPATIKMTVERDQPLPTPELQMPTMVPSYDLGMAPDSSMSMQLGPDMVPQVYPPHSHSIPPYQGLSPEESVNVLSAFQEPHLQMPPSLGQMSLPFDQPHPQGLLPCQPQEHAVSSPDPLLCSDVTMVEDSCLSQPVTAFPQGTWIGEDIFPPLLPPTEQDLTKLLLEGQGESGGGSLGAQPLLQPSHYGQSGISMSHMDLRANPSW
In short: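 Luminescence from HiBiT-STAT6 complementing stably expressed LgBiT in HeLa clone 4.14 reports remaining STAT6 protein. Cells (5000/well) exposed to compound for 4-24 h at 37° C; read 0.5 h after Nano-Glo addition. 100% degradation window set with 50 μM terfenadine; percent degradation plotted against concentration.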

[1] = tested on: Eotaxin-3 release in human whole blood stimulated with IL-4; assay: Human Whole Blood Eotaxin-3 Assay (IL-4 stimulated eotaxin-3 release); format: cell-based; conditions: IL-4 stimulation, 48 h, values given for compounds with >80% Emax, geometric mean
In short: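 Eotaxin-3 (CCL26) release measured by MSD kit in plasma supernatant after 48 h IL-4 stimulation ([…]) of human whole blood. Compounds added in triplicate 4-fold dilutions 2 h before stimulation; 0.5% DMSO final, 37° C, 5% CO2.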

Row | Structure (SMILES) | DC50 (STAT6) [nM] | EC50 [1] [nM]
1 | CNc1ccn(-c2ccnc3c2cc(CN2CCC(c4c(C)cc(C(=O)N(C)c5ccc(C6CCN(Cc7ccc8c(c7)n(C)c(=O)n8C7CCC(=O)NC7=O)CC6)cc5)cc4F)CC2)n3C)c(=O)c1 (centres unmarked) [Example 3u248, N-(4-(1-((1-(2,6-dioxopiperidin-3-yl)-3-methyl-2-oxo-2,3-dihydro-1H-benzo[d]imidazol-5-yl)methyl)piperidin-4-yl)phenyl)-3-fluoro-N,5-dimethyl-4-(1-((1-methyl-4-(4-(methylamino)-2-oxopyridin-1 (2H)-yl)-1H-pyrrolo[2,3-b]pyridin-2-yl)methyl)piperidin-4-yl)benzamide] | 0.2 | 0.3
2 | CNc1cc(=O)n(-c2ccnc3c2cc([C@H](C)N2CC=C(c4c(C)cc(C(=O)N5CCC(CN6CCN(Cc7ccc8c(c7)C7(CCC7)C(=O)N8C7CCC(=O)NC7=O)C[C@@H]6C)CC5)cc4F)CC2)n3C)cc1F (stereo partly drawn) [Example 3u309, 3-(5′-(((S)-4-((1-(3-fluoro-4-(1-((S)-1-(4-(5-fluoro-4-(methylamino)-2-oxopyridin-1 (2H)-yl)-1-methyl-1H-pyrrolo[2,3-b]pyridin-2-yl)ethyl)-1,2,3,6-tetrahydropyridin-4-yl)-5-methylbenzoyl)piperidin-4-yl)methyl)-3-methylpiperazin-1-yl)methyl)-2′-oxospiro[cyclobutane-1,3′-indolin]-1′-yl)piperidine-2,6-dione] | 2.2 | 4.8
3 | CNc1cc(=O)n(-c2ccnc3c2cc([C@H](C)N2CC=C(c4c(F)cc(C(=O)N5CCC(CN6CCN(Cc7ccc8c(c7)C(C)(C)C(=O)N8C7CCC(=O)NC7=O)C[C@@H]6C)CC5)cc4F)CC2)n3C)cc1F (stereo partly drawn) [Example 3u9, 3-(5-(((S)-4-((1-(3,5-difluoro-4-(1-((S)-1-(4-(5-fluoro-4-(methylamino)-2-oxopyridin-1 (2H)-yl)-1-methyl-1H-pyrrolo[2,3-b]pyridin-2-yl)ethyl)-1,2,3,6-tetrahydropyridin-4-yl)benzoyl)-piperidin-4-yl)methyl)-3-methylpiperazin-1-yl)methyl)-3,3-dimethyl-2-oxoindolin-1-yl)piperidine-2,6-dione] | 3.8 | 4.9
4 | CNc1cc(=O)n(-c2ccnc3c2cc(CN2CCC(c4c(F)cc(C(=O)N5CCC(CN6CCN(Cc7ccc8c(c7)C(C)(C)C(=O)N8[C@H]7CCC(=O)NC7=O)C[C@@H]6C)CC5)cc4F)CC2)n3C)cc1F (single isomer, unassigned) [Example 3u49] | 1.7 | 12.9
5 | Cc1cc(C(=O)N2CCC(CN3CCN(Cc4cc5c(cc4F)n([C@@H]4CCC(=O)NC4=O)c(=O)n5C)CC3)CC2)cc(F)c1C1=CCN([C@@H](C)c2cc3c(-n4ccc5c(c4=O)CCN5)ccnc3n2C)CC1 (single isomer, unassigned) [Example 3u76] | 3.2 | 1.3
6 | CNc1ccn(-c2ccnc3c2cc(CN2CCC(c4c(F)cc(C(=O)N5CCC(CN6CCN(Cc7ccc8c(c7)C(C)(C)C(=O)N8C7CCC(=O)NC7=O)CC6)CC5)cc4F)CC2)n3C)c(=O)c1 (centres unmarked) [Example 3u16, 3-(5-((4-((1-(3,5-difluoro-4-(1-((1-methyl-4-(4-(methylamino)-2-oxopyridin-1 (2H)-yl)-1H-pyrrolo[2,3-b]pyridin-2-yl)methyl)piperidin-4-yl)benzoyl)piperidin-4-yl)methyl)piperazin-1-yl)-methyl)-3,3-dimethyl-2-oxoindolin-1-yl)piperidine-2,6-dione] | 11.2 | 12.1
7 | CNc1ccn(-c2ccnc3c2cc(CN2CC=C(c4c(C)cc(C(=O)N5CCC(CN6CCN(Cc7ccc8c(c7)C(C)(C)C(=O)N8[C@H]7CCC(=O)NC7=O)C[C@@H]6C)CC5)cc4F)CC2)n3C)c(=O)c1 (single isomer, unassigned) [Example 3u179] | 6.1 | 12.4
8 | CNc1ccn(-c2ccnc3c2cc([C@H](C)N2CC=C(c4c(C)cc(C(=O)N5CCC(CN6CCN(c7cc8c(cc7F)n([C@H]7CCC(=O)NC7=O)c(=O)n8C)CC6)CC5)cc4F)CC2)n3C)c(=O)c1 (single isomer, unassigned) [Example 3u307] | 1.4 | 1.1
9 | CNc1cc(=O)n(-c2ccnc3c2cc([C@H](C)N2CC=C(c4c(C)cc(C(=O)N5CCC(CN6CCN(Cc7ccc8c(c7)C(C)(C)C(=O)N8[C@H]7CCC(=O)NC7=O)C[C@@H]6C)CC5)cc4F)CC2)n3C)cc1F (single isomer, unassigned) [Example 3u173] | 3.1 | 7.8
10 | CNc1ccn(-c2ccnc3c2cc(CN2CC=C(c4c(F)cc(C(=O)N5CCC(CN6CCN(Cc7ccc8c(c7)C(C)(C)C(=O)N8[C@H]7CCC(=O)NC7=O)C[C@@H]6C)CC5)cc4F)CC2)n3C)c(=O)c1 (single isomer, unassigned) [Example 3u46] | 5.8 | 10.1
11 | CNc1ccn(-c2ccnc3c2cc([C@H](C)N2CC=C(c4c(C)cc(C(=O)N5CCC(CN6CCN(c7ccc8c(c7)C(C)(C)C(=O)N8[C@@H]7CCC(=O)NC7=O)CC6)CC5)cc4F)CC2)n3C)c(=O)c1 (single isomer, unassigned) [Example 3u281] | 4 | 4.2
12 | CNc1cc(=O)n(-c2ccnc3c2cc([C@H](C)N2CC=C(c4c(C)cc(C(=O)N5CCC(CN6CCN(Cc7ccc8c(c7)C7(CCC7)C(=O)N8C7CCC(=O)NC7=O)CC6)CC5)cc4F)CC2)n3C)cc1F (stereo partly drawn) [Example 3u258, 3-(5′-((4-((1-(3-fluoro-4-(1-((S)-1-(4-(5-fluoro-4-(methylamino)-2-oxopyridin-1 (2H)-yl)-1-methyl-1H-pyrrolo[2,3-b]pyridin-2-yl)ethyl)-1,2,3,6-tetrahydropyridin-4-yl)-5-methylbenzoyl)piperidin-4-yl)methyl)piperazin-1-yl)methyl)-2′-oxospiro[cyclobutane-1,3′-indolin]-1′-yl)piperidine-2,6-dione] | 3.1 | 7
13 | CNc1ccn(-c2ccnc3c2cc([C@H](C)N2CC=C(c4c(C)cc(C(=O)N5CCC(CN6CCN(c7ccc8c(c7)n(C)c(=O)n8[C@H]7CCC(=O)NC7=O)CC6)CC5)cc4F)CC2)n3C)c(=O)c1 (single isomer, unassigned) [Example 3u293] | 1 | 0.8
14 | CNc1cc(=O)n(-c2ccnc3c2cc(CN2CCC(c4c(F)cc(C(=O)N(C)c5ccc(C6CCN(Cc7ccc8c(c7)n(C)c(=O)n8C7CCC(=O)NC7=O)CC6)cc5)cc4F)CC2)n3C)cc1F (centres unmarked) [Example 3u245, N-(4-(1-((1-(2,6-dioxopiperidin-3-yl)-3-methyl-2-oxo-2,3-dihydro-1H-benzo[d]imidazol-5-yl)methyl)piperidin-4-yl)phenyl)-3,5-difluoro-4-(1-((4-(5-fluoro-4-(methylamino)-2-oxopyridin-1 (2H)-yl)-1-methyl-1H-pyrrolo[2,3-b]pyridin-2-yl)methyl)piperidin-4-yl)-N-methylbenzamide] | 0.1 | 0.1
15 | CNc1cc(=O)n(-c2ccnc3c2cc([C@H](C)N2CC=C(c4c(C)cc(C(=O)N5CCC(CN6CCN(c7ccc8c(c7)C7(CC7)C(=O)N8C7CCC(=O)NC7=O)CC6)CC5)cc4F)CC2)n3C)cc1F (stereo partly drawn) [Example 3u302, 3-(5′-(4-((1-(3-fluoro-4-(1-((S)-1-(4-(5-fluoro-4-(methylamino)-2-oxopyridin-1 (2H)-yl)-1-methyl-1H-pyrrolo[2,3-b]pyridin-2-yl)ethyl)-1,2,3,6-tetrahydropyridin-4-yl)-5-methylbenzoyl)piperidin-4-yl)methyl)piperazin-1-yl)-2′-oxospiro[cyclopropane-1,3′-indolin]-1′-yl)piperidine-2,6-dione] | 4.9 | 29.2
16 | CNc1cc(=O)n(-c2ccnc3c2cc([C@H](C)N2CC=C(c4c(F)cc(C(=O)N5CCC(CN6CCN(Cc7ccc8c(c7)n(C)c(=O)n8C7CCC(=O)NC7=O)CC6)CC5)cc4F)CC2)n3C)cc1F (mixture of isomers) [Example 3u51, 3-(5-((4-((1-(3,5-difluoro-4-(1-((S)-1-(4-(5-fluoro-4-(methylamino)-2-oxopyridin-1 (2H)-yl)-1-methyl-1H-pyrrolo[2,3-b]pyridin-2-yl)ethyl)-1,2,3,6-tetrahydropyridin-4-yl)benzoyl)piperidin-4-yl)methyl)piperazin-1-yl)methyl)-3-methyl-2-oxo-2,3-dihydro-1H-benzo[d]imidazol-1-yl)piperidine-2,6-dione] | 1.8 | 1.9
